Measured values from paper PMC12566046, “Arylpiperazinyl-Benzocycloheptapyrrole-Carboxamides Endowed with Dual Anticancer and Antiviral Activities” (Molecules, 2025).

Legend:
[1] = tested on: HT29 (colon cancer cell line); experiment: NCI-60 five-dose assay; assay type: cell-based, human; details: Homo sapiens, HT-29, five doses (10^−4–10^−8 M), read-out: Growth inhibition 50 (GI50)
Prostate Cancer panel = experiment: NCI-60 five-dose assay, panel-level GI50 (mean graph midpoint); assay type: cell-based, human; details: Homo sapiens; Prostate Cancer panel average; read-out: GI50 mean graph midpoint (MG_MID)
Protocol: (§1) Due to these preliminary results, six compounds, 1, 5, 10, 11, 17, and 20, were selected for the five-dose screen NCI-programme against the same panel of tumour cell lines.
(§2) Next, a mean graph midpoint (MG_MD) was calculated for compounds 1, 5, 10, 11, 17, and 20 and reported as waterfall graphs GI50, TGI, and LC50 in the Supplementary Materials (Figures S69–S86). In Table 9, we reported the average GI50 for the nine-cancer panels, underlining both the activity and selectivity for compounds 1, 10, 11, and 20.

CNS Cancer panel = experiment: as above; assay type: cell-based, human; details: Homo sapiens; CNS Cancer panel average; read-out: GI50 mean graph midpoint (MG_MID)
Protocol: as §1, §2

Renal Cancer panel = experiment: as above; assay type: cell-based, human; details: Homo sapiens; Renal Cancer panel average; read-out: GI50 mean graph midpoint (MG_MID)
Protocol: as §1, §2

Ovarian Cancer panel = experiment: as above; assay type: cell-based, human; details: Homo sapiens; Ovarian Cancer panel average; read-out: GI50 mean graph midpoint (MG_MID)
Protocol: as §1, §2

Breast Cancer panel = experiment: as above; assay type: cell-based, human; details: Homo sapiens; Breast Cancer panel average; read-out: GI50 mean graph midpoint (MG_MID)
Protocol: as §1, §2

[2] = tested on: Non-Small Cell Lung Cancer panel; experiment: as above; assay type: cell-based, human; details: Homo sapiens; Non-Small Cell Lung Cancer panel average; read-out: GI50 mean graph midpoint (MG_MID)
Protocol: as §1, §2

[3] = tested on: UACC-62 (melanoma cell line); experiment: NCI-60 five-dose assay
[4] = tested on: HL-60(TB) (leukemia cell line); experiment: NCI-60 five-dose assay; assay type: cell-based, human; details: Homo sapiens, five doses (10^−4–10^−8 M), read-out: Growth inhibition 50 (GI50)
[5] = tested on: COLO 205 (colon cancer cell line); experiment: NCI-60 five-dose assay; assay type: cell-based, human; details: Homo sapiens, five doses (10^−4–10^−8 M), read-out: Growth inhibition 50 (GI50)
[6] = tested on: SW-620 (colon cancer cell line); experiment: NCI-60 five-dose assay; assay type: cell-based, human; details: Homo sapiens; SW-620; five doses (10^−4–10^−8 M); read-out: Growth inhibition 50 (GI50)
[7] = tested on: MDA-MB-435 (melanoma cell line); experiment: NCI-60 five-dose assay
[8] = tested on: MALME-3M (melanoma cell line); experiment: NCI-60 five-dose assay
[9] = tested on: NCI cancer panel (all cell lines); experiment: NCI-60 five-dose assay, overall mean graph midpoint (MG_MID); assay type: cell-based, human; details: Homo sapiens; MG_MID over all panels; read-out: GI50 mean graph midpoint (MG_MID)
Protocol: as §1, §2

[10] = tested on: MOLT-4 (leukemia cell line); experiment: NCI-60 five-dose assay; assay type: cell-based, human; details: Homo sapiens, five doses (10^−4–10^−8 M), read-out: Growth inhibition 50 (GI50)
[11] = tested on: RPMI-8226 (leukemia cell line); experiment: NCI-60 five-dose assay; assay type: cell-based, human; details: Homo sapiens, five doses (10^−4–10^−8 M), read-out: Growth inhibition 50 (GI50)
[12] = tested on: UACC-257 (melanoma cell line); experiment: NCI-60 five-dose assay
SR (leukemia cell line) = experiment: NCI-60 five-dose assay; assay type: cell-based, human; details: Homo sapiens, five doses (10^−4–10^−8 M), read-out: Growth inhibition 50 (GI50)
[13] = tested on: HCT-116 (colon cancer cell line); experiment: NCI-60 five-dose assay; assay type: cell-based, human; details: Homo sapiens, five doses (10^−4–10^−8 M), read-out: Growth inhibition 50 (GI50)
[14] = tested on: CCRF-CEM (leukemia cell line); experiment: NCI-60 five-dose assay; assay type: cell-based, human; details: Homo sapiens, five doses (10^−4–10^−8 M), read-out: Growth inhibition 50 (GI50)
Leukemia panel = experiment: NCI-60 five-dose assay, panel-level GI50 (mean graph midpoint, range); assay type: cell-based, human; details: Homo sapiens; Leukemia panel average; read-out: GI50 mean graph midpoint (MG_MID)
Protocol: as §1, §2

Colon Cancer panel = experiment: as above; assay type: cell-based, human; details: Homo sapiens; Colon Cancer panel average; read-out: GI50 mean graph midpoint (MG_MID)
Protocol: as §1, §2

Melanoma panel = experiment: as above; assay type: cell-based, human; details: Homo sapiens; Melanoma panel average; read-out: GI50 mean graph midpoint (MG_MID)
Protocol: as §1, §2

[15] = tested on: KM12 (colon cancer cell line); experiment: NCI-60 five-dose assay; assay type: cell-based, human; details: Homo sapiens, five doses (10^−4–10^−8 M), read-out: Growth inhibition 50 (GI50)
[16] = tested on: HCT-15 (colon cancer cell line); experiment: NCI-60 five-dose assay; assay type: cell-based, human; details: Homo sapiens, five doses (10^−4–10^−8 M), read-out: Growth inhibition 50 (GI50)

Question: How did the GI50 [1] turn out when O=C(NCCCN1CCN(Cc2ccccc2)CC1)c1c(Cl)[nH]c2c1CCCc1ccccc1-2 [Compound 20, N-(3-(4-Benzylpiperazin-1-yl)propyl)-2-chloro-1,4,5,6-tetrahydrobenzo[6,7]cyclohepta[1,2-b]pyrrole-3-carboxamide] was run?
Answer: The GI50 was 4.03 µM.

Question: What about the GI50 (Prostate Cancer panel) of the same molecule?
Answer: Its GI50 is 9.55 µM.

Question: And the GI50 (CNS Cancer panel)?
Answer: The GI50 was 12 µM.

Question: And the GI50 (Renal Cancer panel)?
Answer: The GI50 was 9.12 µM.

Question: And the GI50 (Ovarian Cancer panel)?
Answer: Its GI50 is 12 µM.

Question: And the GI50 (Breast Cancer panel)?
Answer: Its GI50 is 6.92 µM.

Question: What about the GI50 [2] of the same molecule?
Answer: The GI50 was 10.5 µM.

Question: And the GI50 ([3]; Homo sapiens, UACC-62, read-out: Growth inhibition 50 (GI50))?
Answer: Its GI50 is 6.93 µM.

Question: And the CC50 ([3]; Homo sapiens, UACC-62, read-out: LC50 (molar concentration leading to 50% net cell death))?
Answer: The CC50 was 45.7 µM.

Question: And the “TGI (molar concentration giving total growth inhibition)” value ([3]; UACC-62)?
Answer: Its value is 19.95 µM.

Question: What about the GI50 [4] of the same molecule?
Answer: Its GI50 is 5.06 µM.

Question: And the GI50 [5]?
Answer: Its GI50 is 1960 nM.

Question: What about the GI50 [6] of the same molecule?
Answer: The GI50 was 3.59 µM.

Question: What about the GI50 ([7]; Homo sapiens, MDA-MB-435, read-out: Growth inhibition 50 (GI50)) of the same molecule?
Answer: Its GI50 is 4.9 µM.

Question: What about the CC50 ([7]; Homo sapiens, MDA-MB-435, read-out: LC50 (molar concentration leading to 50% net cell death)) of the same molecule?
Answer: The CC50 was 49 µM.

Question: What about the “TGI (molar concentration giving total growth inhibition)” value ([7]; MDA-MB-435) of the same molecule?
Answer: Its value is 17.78 µM.

Question: What about the GI50 ([8]; Homo sapiens, Malme-3M, read-out: Growth inhibition 50 (GI50)) of the same molecule?
Answer: The GI50 was 2020 nM.

Question: What about the CC50 ([8]; Homo sapiens, Malme-3M, read-out: LC50 (molar concentration leading to 50% net cell death)) of the same molecule?
Answer: The CC50 was 7.76 µM.

Question: What about the “TGI (molar concentration giving total growth inhibition)” value ([8]; MALME-3M) of the same molecule?
Answer: The value was 3.98 µM.

Question: What about the GI50 [9] of the same molecule?
Answer: The GI50 was 6.76 µM.

Question: What about the GI50 [10] of the same molecule?
Answer: The GI50 was 4.78 µM.

Question: What about the GI50 [11] of the same molecule?
Answer: Its GI50 is 3.69 µM.

Question: And the GI50 ([12]; Homo sapiens, UACC-257, read-out: Growth inhibition 50 (GI50))?
Answer: The GI50 was 1870 nM.

Question: What about the CC50 ([12]; Homo sapiens, UACC-257, read-out: LC50 (molar concentration leading to 50% net cell death)) of the same molecule?
Answer: The CC50 was 26.9 µM.

Question: And the “TGI (molar concentration giving total growth inhibition)” value ([12]; UACC-257)?
Answer: Its value is 6.61 µM.

Question: And the GI50 (SR (leukemia cell line))?
Answer: The GI50 was 530 nM.

Question: What about the GI50 [13] of the same molecule?
Answer: Its GI50 is 5.5 µM.

Question: What about the GI50 [14] of the same molecule?
Answer: The GI50 was 10.7 µM.

Question: What about the GI50 (Leukemia panel) of the same molecule?
Answer: The GI50 was 3.39 µM.

Question: And the GI50 (Colon Cancer panel)?
Answer: The GI50 was 4.17 µM.

Question: What about the GI50 (Melanoma panel) of the same molecule?
Answer: The GI50 was 3.39 µM.

Question: What about the GI50 [15] of the same molecule?
Answer: Its GI50 is 9.38 µM.

Question: And the GI50 [16]?
Answer: Its GI50 is 7.78 µM.
